Laboratory results taken from US7807705B2, “Potent indole-3-carbinol-derived antitumor agents” (The Ohio State University Research Foundation, priority 2007, dated 2010).
Entries after “also recorded” stand apart in the source; their conditions may differ.

Assays:
[1] = tested on: LNCaP (p53+/+) androgen-responsive prostate cancer cells; assay: MTT cell viability assay; format: cell-based, human; details: 24-h exposure
Description: (§1) Cell Culture. LNCaP androgen-responsive (p53^+/+) and PC-3 androgen-nonresponsive (p53^−/−) human prostate cancer cells were purchased from the American Type Tissue Collection (Manassas, Va.) and cultured in RPMI 1640 medium (Gibco, Grand Island, N.Y.) supplemented with 10% fetal bovine serum (FBS; Gibco).—Normal human prostate epithelial cells (PrEC) were obtained from Cambrex Bioscience-Walkersville (Walkersville, Md.), and maintained in the vendor's recommended defined prostate epithelial growth medium. All cell types were cultured at 37° C. in a humidified incubator containing 5% CO2.
(§2) Cell viability analysis. The effect of test agents on cell viability was assessed by using the MTT [3-(4,5-dimethylthiazol-2-yl)-2,5-diphenyl-2H-tetrazolium bromide] assay in six to twelve replicates. Cancer cells and PrECs were grown in 5% FBS-supplemented RPMI 1640 medium or 5% FBS-supplemented prostate epithelial growth medium, respectively, in 96-well, flat-bottomed plates for 24 h, and then exposed to various concentrations of test agents in the same medium for the indicated time intervals. […] Absorbance at 570 nm was determined on a plate reader.
(§3) These agents (A1-A24) were evaluated for their ability to reduce cell viability of PC-3 (p53^−/−) androgen-nonresponsive and LNCaP (p53^+/+) androgen-responsive prostate cancer cells after 24-h exposure by MTT assay.

[2] = tested on: PC-3 (p53−/−) androgen-nonresponsive prostate cancer cells; assay: MTT cell viability assay; format: cell-based, human; details: PC-3 cells, 24-h exposure
Description: as §1, §2, §3

[3] = tested on: LNCaP cells; assay: Cell proliferation by direct cell counting (Coulter counter); format: cell-based, human
Method: (§4) Cell Proliferation. PC-3 and LNCaP cells were seeded into six-well plates at approximately 200,000 cells/well in 5% FBS-containing RPMI 1640 medium. Following a 24 h attachment period, cells were treated in triplicate with the indicated concentrations of test agent or DMSO vehicle in 5% FBS-containing RPMI-1640 medium. At different time intervals, cells were harvested by trypsinization, and numerated using a Coulter counter (Model Z1 D/T, Beckman Coulter, Fullerton, Calif.).
(§5) In line with the cell viability data, a concentration of at least 300 μM was required for indole-3-carbinol to attain the same level of efficacy.

[4] = tested on: PC-3 cells; assay: as above; format: cell-based, human
Method: as §4, §5

[5] = NMR analysis of acid stability; format: physicochemical; details: CD3OD plus deuterium-labeled HCl, room temperature; indole-3-carbinol t=5 min, OSU-A9 up to 8 h
Method: Nuclear magnetic resonance (NMR) analysis of acid stability. […] To each solution was added 100 μl of deuterium-labeled HCl, and NMR spectra were recorded in a 300 MHz NMR spectrometer at room temperature at different time intervals.
Individual compounds (20 mg) were dissolved in 1 ml of deuterium-labeled methanol (CD3OD).

[6] = tested on: PC-3 cells; assay: Apoptosis analysis (morphology, caspase-3 activation and PARP cleavage by Western blot); format: cell-based, human; details: for caspase-3 activation and PARP cleavage: 48 hours, Western blot
Method: Apoptosis analysis. Drug-induced apoptotic cell death was assessed by Western blot analysis of caspase-3 activation and poly-(ADP-ribose)polymerase (PARP) cleavage. […], washed with ice-cold PBS, and resuspended in lysis buffer containing 20 mM Tris-HCl, pH 8, 137 mM NaCl, 1 mM CaCl2, 10% glycerol, 1% Nonidet P-40, 0.5% deoxycholate, 0.1% SDS, 100 μM 4-(2-aminoethyl)benzenesulfonyl fluoride, leupeptin at 10 μg/mL, and aprotinin at 10 μg/mL. Soluble cell lysates were collected after centrifugation at 10,000 g for 5 min. Equivalent amounts of proteins (60-100 μg) from each lysate were resolved in 8% SDS-polyacrylamide gels. Proteins were transferred to nitrocellulose membranes, and analyzed by immunoblotting with antibodies against caspase-3 or PARP as described below.
Drug-treated cells became shrunken, rounded, and detached from the dish.

[7] = tested on: Akt, GSK3β, Bad, ERKs, JNK, p38, Bcl-2 family members, survivin, NF-kB, cyclin D1, p27, p21 in PC-3 cells; assay: Immunoblotting of signaling targets in PC-3 cells; format: cell-based, human; details: 48 h; for expression of Bax, p27, and p21: dose-dependent
Method: Immunoblotting. Biomarkers of apoptosis and signaling components associated with cell survival and growth arrest were assessed by Western immunoblotting as follows. Treated cells were washed in PBS, resuspended in SDS sample buffer, sonicated for 5 sec, and then boiled for 5 min. After brief centrifugation, equivalent amounts of proteins from the soluble fractions of cell lysates were resolved in 10% SDS-polyacrylamide gels on a Minigel apparatus, and transferred to a nitrocellulose membrane using a semi-dry transfer cell. The transblotted membrane was washed three times with TBS containing 0.05% Tween 20 (TBST). After blocking with TBST containing 5% nonfat milk for 60 min, the membrane was incubated with an appropriate primary antibody at 1:500 dilution (with the exception of anti-b-actin antibody, 1:2,000) in TBST-5% low fat milk at 4° C. for 12 h, and was then washed three times with TBST. The membrane was probed with goat anti-rabbit or anti-mouse IgG-horseradish peroxidase conjugates (1:2,500) for 90 min at room temperature, and washed three times with TBST. The immunoblots were visualized by enhanced chemiluminescence.
Indole-3-carbinol has been reported to target an array of signaling pathways to induce apoptosis and cell cycle arrest in cancer cells. […] These targets comprised three categories of biomarkers: a) phosphorylation of signaling kinases: Akt and its downstream effector GSK3β, ERKs, JNKs, and p38; b) phosphorylation/expression of Bcl-2 family members: Bad, Bax, Bcl-2, Bcl-xL, and Mcl-1; c) expression of other apoptosis and cell-cycle regulatory proteins: survivin, NF-kB/RelA, cyclin D1, p27, and p21 (FIG. 4).

[8] = tested on: androgen receptor (AR); assay: Immunoblotting of AR expression in LNCaP cells; format: cell-based, human; details: highest doses examined (data not shown)
[9] = tested on: Normal human prostate epithelial cells (PrEC); assay: MTT cell viability assay; format: cell-based
Description: as §1, §2, §3

[10] = molecular target: T1, PPARγ (Homo sapiens, UniProt P37231); assay: PPRE-luciferase reporter assay for PPARγ activation in PC-3 cells; format: cell-based; details: even at 20 μM, 24 h
T1 construct: PC-3 cells were transfected with PPRE-X3-TK-Luc; endogenous in cells; host or cells: PC-3 cells
T1 sequence (P37231 1-505): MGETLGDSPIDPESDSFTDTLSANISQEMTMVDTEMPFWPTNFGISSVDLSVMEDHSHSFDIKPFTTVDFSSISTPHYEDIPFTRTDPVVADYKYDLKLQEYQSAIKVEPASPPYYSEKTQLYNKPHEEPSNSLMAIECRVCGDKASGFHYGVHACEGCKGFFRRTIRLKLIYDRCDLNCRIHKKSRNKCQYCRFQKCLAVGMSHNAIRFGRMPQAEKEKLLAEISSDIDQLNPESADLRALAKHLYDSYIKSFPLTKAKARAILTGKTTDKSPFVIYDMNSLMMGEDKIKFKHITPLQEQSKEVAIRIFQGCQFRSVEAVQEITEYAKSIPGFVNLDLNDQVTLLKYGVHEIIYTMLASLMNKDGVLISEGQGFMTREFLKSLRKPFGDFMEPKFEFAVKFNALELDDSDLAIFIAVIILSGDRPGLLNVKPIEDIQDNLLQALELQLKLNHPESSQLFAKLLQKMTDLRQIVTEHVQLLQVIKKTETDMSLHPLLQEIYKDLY
Method: Luciferase assay for PPARg activation. The PPRE-x3-TK-Luc reporter vector contains three copies of the PPAR-response element (PPRE) upstream of the thymidine kinase (tk) promoter-luciferase fusion gene and was kindly provided by Dr. Bruce Spiegelman (Harvard University, Cambridge, Mass.). PC-3 cells were cultured in a 100 mm plate in phenol red-free RPMI 1640 medium containing 10% FBS until the achieved 50-70% confluency, after which they were transfected with 6 μg of the plasmid using Fugene 6 (Roche, Indianapolis, Ind.) in RPMI 1640 medium. For each transfection, herpes simplex virus-thymidine kinase (HSV-TK) promoter-driven Renilla luciferase (phRL-TK) was used as an internal control for normalization. Following transfections, cells were treated as indicated, in RPMI 1640 medium containing 10% charcoal-stripped FBS. Cells were then collected into Passive Lysis Buffer (Promega), and luciferase activities in the cell lysates were determined by luminometry. All transfection experiments were carried out in triplicate plates and repeated separately at least three times.

[11] = Maximum tolerated dose determination; format: in vivo, athymic nude mice; details: intraperitoneal, daily for 14 days, doses up to 25 mg/kg (tested 5, 10, 25, 50 mg/kg/day)
[12] = Tolerability in PC-3 tumor-bearing mice (body weight, necropsy, histology, blood); format: in vivo, athymic nude mice; details: 10 or 25 mg/kg daily, intraperitoneal, 42 days
Method: (§6) In vivo studies. […] Body weights were measured weekly.

[13] = tested on: Bcl-xL; assay: Intratumoral biomarker immunoblotting of PC-3 tumor homogenates; format: in vivo, human; details: intraperitoneal, 42 days
Method: as §6

[14] = tested on: cyclin D1; assay: as above; format: in vivo, human; details: intraperitoneal, 42 days
Method: as §6

[15] = tested on: p27; assay: as above; format: in vivo, human; details: intraperitoneal, 42 days
Method: as §6

[16] = tested on: phospho-Akt; assay: as above; format: in vivo, human; details: intraperitoneal, 42 days
Method: as §6

[17] = tested on: phospho-p38; assay: as above; format: in vivo, human; details: intraperitoneal, 42 days
Method: as §6

Structure (SMILES): OCc1c[nH]c2ccccc12 [indole-3-carbinol]
- IC50 [1]: 267 µM
- IC50 [2]: 512 µM
- concentration that completely suppressed cell proliferation [3]: at least 300 μM
- concentration that completely suppressed cell proliferation [4]: at least 300 μM
- chemical stability in 0.1 N HCl, CH2OH proton signal by NMR [5]: immediate shift of the CH2 signal
- morphological changes, light microscopy ([6]; 500 μM, 48 h): pronounced morphological changes
- caspase-3 activation and PARP cleavage [6]: dose-dependent effect
- phosphorylation of Akt and its substrates GSK3b and Bad [7]: dose-dependent dephosphorylation
- phosphorylation of ERKs, JNK, and p38 [7]: increased phosphorylation
- expression of Bax, p27, and p21 [7]: up-regulating the expression
- AR expression [8]: neither agents had an appreciable effect

Structure (SMILES): O=[N+]([O-])c1cc(S(=O)(=O)n2cc(CO)c3ccccc32)ccc1Cl [OSU-A9, [1-(3′-nitro-4′-chlorobenzenesulfonyl)-1H-indol-3-yl]-methanol]
- lower sensitivity of PrECs than the prostate cancer cells ([9]; PrEC IC50 versus PC-3 and LNCaP IC50): 2.2-4.5 fold
- IC50 ([9]; PrECs, MTT assay): 9 µM
- concentration that completely suppressed cell proliferation [3]: ≥ 2.5 µM
- concentration that completely suppressed cell proliferation [4]: ≥ 2.5 µM
- chemical stability in 0.1 N HCl, CH2OH proton signal by NMR [5]: no appreciable change
- PPARγ transactivation [10]: lacked appreciable activity
- morphological changes, light microscopy ([6]; 5 μM, 24 h): pronounced morphological changes
- caspase-3 activation and PARP cleavage [6]: dose-dependent effect
- apoptosis-inducing potency versus indole-3-carbinol ([6]; caspase-3 activation and PARP cleavage): 100 fold
- phosphorylation of Akt and its substrates GSK3b and Bad [7]: dose-dependent dephosphorylation
- phosphorylation of ERKs, JNK, and p38 [7]: increased phosphorylation
- expression of Bax, p27, and p21 [7]: up-regulating the expression
- weight loss [11]: No apparent weight loss
- body weight compared to vehicle-treated controls [12]: without significant loss of body weight
- hematological and serum chemistry findings [12]: normal hematological and serum chemistry findings
- overt toxicity / tolerability [12]: well-tolerated; also recorded: without overt signs of toxicity
- lesions observed at necropsy ([12]; limited to peritoneal surfaces): mild to moderate amounts of fibrous adhesions
- microscopic lesions in tissues examined ([12]; with the exception of the affected peritoneum): no treatment-associated lesions; also recorded: no significant lesions
- reduction in intratumoral Bcl-xL ([13]; 10 mg/kg per day): 34±8%
- reduction in intratumoral Bcl-xL ([13]; 25 mg/kg per day): 86±4%
- reduction in intratumoral cyclin D1 ([14]; 10 mg/kg per day): 70±3%
- reduction in intratumoral cyclin D1 ([14]; 25 mg/kg per day): 88±3%
- increase in intratumoral p27 ([15]; 10 mg/kg per day): 1.8±0.3 fold
- increase in intratumoral p27 ([15]; 25 mg/kg per day): 2.7±1.4 fold
- reduction in intratumoral phospho-Akt compared to vehicle-treated controls ([16]; 10 mg/kg per day): 83±8%
- reduction in intratumoral phospho-Akt compared to vehicle-treated controls ([16]; 25 mg/kg per day): 94±1%
- increase in intratumoral phospho-p38 ([17]; 10 mg/kg per day): 9.0±3.5 fold
- increase in intratumoral phospho-p38 ([17]; 25 mg/kg per day): 10.1±2.4 fold
